Among the test systems are LOX IMVI melanoma; SNB-75 CNS; COLO 205 colon; NCI-H522 lung; SF-295 CNS; MOLT-4 leukemia; HS 578T breast; A498 renal; TK-10 renal; HL-60(TB) leukemia.
What all share (experiment): inhibition of tumour cell growth, NCI panel, 48 h

Structures are written as SMILES. Where “and” joins values, the source holds several entries; their conditions need not be identical. Equal values may be shown once.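 Compound exposure: 48 hours, 5 concentrations, 96-well plates. Here, GI50 denotes the concentration required for 50% inhibition of growth. TGI: total growth inhibition.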 A value given as a limit tells only on which side of the number the result lay.

Drawing on PubChem BioAssay (NCI), this text covers TGI and GI50 for nine compounds.

Regarding `CCn1c(=O)c2c(=O)c3c4c(oc3oc2c2ccccc21)C(=O)c1ccccc1C4=O`, the TGI in the test with LOX IMVI melanoma is greater than 100 µM; with SNB-75 CNS, greater than 53.3 µM; in the test on COLO 205 colon it was greater than 100 µM; in the test on NCI-H522 lung, greater than 100 µM; with SF-295 CNS it was greater than 100 µM; in the test with MOLT-4 leukemia it was 2.12 µM. The TGI in the test on HS 578T breast, in the test with A498 renal and with TK-10 renal was greater than 100 µM throughout. For the same compound, the GI50 with SNB-75 CNS is greater than 20.8 µM; in the test on COLO 205 colon it was greater than 100 µM; in the test on NCI-H522 lung, greater than 100 µM; in the test on SF-295 CNS, greater than 24.2 µM; in the test on MOLT-4 leukemia it was 0.366 µM; in the test on HS 578T breast, 19.2 µM. The GI50 was 0.461 µM with A498 renal and greater than 71.5 µM with TK-10 renal.
Take `NC(=O)OCCn1cc(-c2nc(-c3c[nH]c4ncccc34)cs2)c2ccccc21`: the GI50 was 1.55 µM in the test on LOX IMVI melanoma; 2.12 µM with HL-60(TB) leukemia; 2.06 µM with COLO 205 colon; 1.49 µM in the test on NCI-H522 lung; 2.29 µM in the test with SF-295 CNS; 2.19 µM in the test with MOLT-4 leukemia. Also, the GI50 was 1.07 µM in the test on HS 578T breast, 0.905 µM with A498 renal and 2.24 µM with TK-10 renal. The TGI in the test on LOX IMVI melanoma was 4.11 µM; in the test with HL-60(TB) leukemia, 5.45 µM; with COLO 205 colon, 9.57 µM; with NCI-H522 lung, 4.42 µM; in the test on SF-295 CNS it was 7.7 µM; with MOLT-4 leukemia it was 8.61 µM. In addition, the figures for the TGI in the test on HS 578T breast, in the test with A498 renal and in the test with TK-10 renal were 4.25 µM, 2.87 µM and 7.66 µM, respectively.
As to `O=C(Nc1ccc(F)cc1)c1cc(S(=O)(=O)Nc2nc3ccccc3o2)c(SCc2ccccc2)cc1Cl`, the GI50 was 18 µM with LOX IMVI melanoma; 24.3 µM with SNB-75 CNS; 46.2 µM in the test on COLO 205 colon; 15 µM with SF-295 CNS; 19.5 µM in the test on MOLT-4 leukemia; 19.1 µM in the test on HS 578T breast. Moreover, the GI50 in the test on A498 renal is 17.2 µM; in the test with TK-10 renal it was 16.4 µM. Besides, the TGI is 34.2 µM in the test on LOX IMVI melanoma; 56.9 µM with SNB-75 CNS; greater than 100 µM in the test on COLO 205 colon; 29.2 µM in the test on SF-295 CNS; 52.4 µM in the test with MOLT-4 leukemia; 44.5 µM in the test with HS 578T breast. Moreover, the TGI worked out at 32.5 µM in the test on A498 renal and 31.5 µM in the test with TK-10 renal.
Regarding `COc1ccc(CCNC(=O)c2ccc(NC3=C(Cl)C(=O)N(Cc4ccccc4)C3=O)cc2)cc1OC`, the GI50 with HL-60(TB) leukemia is 2.83 µM; in the test on SNB-75 CNS, 38.4 µM; with COLO 205 colon, 3.94 µM; in the test on NCI-H522 lung it was 4.74 µM; in the test with SF-295 CNS it was 29.4 µM; in the test on MOLT-4 leukemia, 2.28 µM. Besides, the GI50 was 4.62 µM in the test on HS 578T breast, 27.2 µM with A498 renal and 11.5 µM in the test with TK-10 renal. Moreover, the TGI in the test with HL-60(TB) leukemia was 4.49 µM; with SNB-75 CNS, greater than 100 µM; with COLO 205 colon it was greater than 100 µM; with NCI-H522 lung, 89.9 µM; in the test with SF-295 CNS, greater than 100 µM; in the test on MOLT-4 leukemia, 4.78 µM. Moreover, the TGI was greater than 100 µM in the test on HS 578T breast, 72.1 µM in the test with A498 renal and 70.9 µM in the test with TK-10 renal.
Take `Cc1cc(C)c(NC(=O)c2sc3nc4c(cc3c2N)CN(Cc2ccccc2)CC4)c(C)c1`: the GI50 in the test with LOX IMVI melanoma was 5.01 µM; in the test on SNB-75 CNS, 2.35 µM; in the test with COLO 205 colon, 2.98 µM; in the test on NCI-H522 lung, 1.6 µM; in the test on SF-295 CNS, 1.89 µM; in the test on MOLT-4 leukemia it was 4.15 µM. Moreover, the GI50 with HS 578T breast was 2.66 µM; with A498 renal, 1.31 µM; in the test on TK-10 renal it was 5.06 µM. Moreover, the TGI in the test on LOX IMVI melanoma was 18.1 µM; in the test on SNB-75 CNS, 11 µM; in the test on COLO 205 colon it was 10.1 µM; with NCI-H522 lung it was 6.82 µM; with SF-295 CNS it was 64.7 µM; in the test on MOLT-4 leukemia, greater than 100 µM. Also, the values for the TGI in the test on HS 578T breast, with A498 renal and in the test with TK-10 renal were 65.9 µM, 7.71 µM and greater than 100 µM, respectively.
Regarding `COc1cc2c(c(OC)c1OC)-c1ncc3cc4c(cc3c1C2)OCO4`, the GI50 in the test on LOX IMVI melanoma is 14.3 µM; in the test on HL-60(TB) leukemia it was 26.3 µM; in the test on SNB-75 CNS, 79.4 µM; with COLO 205 colon, 29.7 µM; with NCI-H522 lung it was 18.9 µM; with SF-295 CNS, 15.6 µM. For the same compound, the GI50 is 14.7 µM in the test on HS 578T breast and 26.2 µM in the test on TK-10 renal. Also, the TGI with LOX IMVI melanoma was 34.1 µM; in the test with HL-60(TB) leukemia it was greater than 100 µM; with SNB-75 CNS, greater than 100 µM; with COLO 205 colon, greater than 100 µM; with NCI-H522 lung, 45.9 µM; in the test on SF-295 CNS, 39.8 µM. For the same compound, the TGI was 49.6 µM in the test on HS 578T breast and 67.3 µM in the test with TK-10 renal.
As to `CC1=NC(=Cc2cc(Br)cc(Br)c2)C(=O)N1n1c(-c2ccccc2)nc2ccccc2c1=O`, the TGI with LOX IMVI melanoma, in the test on HL-60(TB) leukemia, in the test with SNB-75 CNS, in the test on COLO 205 colon, in the test on NCI-H522 lung and with SF-295 CNS was greater than 100 µM each time. The TGI in the test on MOLT-4 leukemia, in the test on HS 578T breast and with TK-10 renal was greater than 100 µM each time.
Turning to `CN1C(=O)/C(=C/c2c(Cl)n(C)c3ccccc23)c2ccccc21`, the GI50 is 4.79 µM in the test with LOX IMVI melanoma; 0.44 µM in the test with HL-60(TB) leukemia; 4.51 µM and 1.96 µM in the test on SNB-75 CNS; 4.59 µM and 0.485 µM in the test on COLO 205 colon; 5.12 µM in the test with NCI-H522 lung; 2.74 µM and 1.58 µM in the test on SF-295 CNS. The GI50 with MOLT-4 leukemia was 1.88 µM and 0.245 µM; in the test with HS 578T breast, 3.46 µM and 2.42 µM; in the test with TK-10 renal, 9.52 µM and 1.38 µM. In addition, the TGI with HL-60(TB) leukemia is 10.2 µM; in the test on SNB-75 CNS it was 3.62 µM; in the test with COLO 205 colon, 1.63 µM; in the test with SF-295 CNS, 7.76 µM and 2.99 µM; in the test on MOLT-4 leukemia, 0.756 µM; with HS 578T breast it was 9.29 µM and 5.34 µM. Further, in the test with TK-10 renal, the TGI is 2.67 µM.
Regarding `O=C(/C=C/c1ccccc1Cl)NC1C=Nc2ccc([N+](=O)[O-])cc2NC1` (configuration not stated), the TGI in the test with LOX IMVI melanoma, in the test on HL-60(TB) leukemia, in the test on SNB-75 CNS, in the test on COLO 205 colon, with NCI-H522 lung and in the test on SF-295 CNS was greater than 100 µM each time. For the same compound, the TGI in the test on MOLT-4 leukemia was 49.3 µM; in the test on A498 renal it was greater than 100 µM; in the test with TK-10 renal, greater than 100 µM.
